Where a name gives a salt, the structure may show the parent alone. Blank lines part the entries; values can stand above or below the molecule they belong to.
Key:
[1] = test system: intracellular GSH in primary human T cells; assay: Quantification of cellular glutathione (GSH) levels; assay type: cell-based; conditions: DMF 50 μM 2 h; BSO 2.5 mM 4 h
Procedure: Primary human T cells (2.5 million cells/mL, 20 mL per condition) were treated as indicated, harvested by centrifugation (500 g, 8 min, 4° C.), and washed twice with PBS. To the cell pellet was added 75 μL of lysis buffer. […] Protein concentrations were adjusted to at least 5 mg/mL and the assay performed according to manufacturer's instructions (Sigma-Aldrich, CS 1020). Data represent mean±SE for two biological replicates.

[2] = biological target: Cys residues in primary human T cells (Homo sapiens, UniProt Q15005); assay: isoTOP-ABPP of compound-treated primary human T cells; assay type: cell-based; conditions: SPCS2 C17 (Q15005)
[3] = test system: Cys residues in primary human T cells; assay: as above; assay type: cell-based; conditions: 4 h
[4] = biological target: T1, Cys residues in primary human T cells (Homo sapiens, UniProt Q9NRG0); assay: as above; assay type: cell-based; conditions: CHRAC1 C55 (Q9NRG0)
T1 sequence (Q9NRG0 1-131): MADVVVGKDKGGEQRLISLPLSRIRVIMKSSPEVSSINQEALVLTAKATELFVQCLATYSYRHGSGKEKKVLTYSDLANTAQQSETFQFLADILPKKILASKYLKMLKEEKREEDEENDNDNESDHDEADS

[5] = biological target: T2, Cys residues in primary human T cells (Homo sapiens, UniProt Q9Y2W6); assay: as above; assay type: cell-based; conditions: TDRKH C109 (Q9Y2W6)
T2 sequence (Q9Y2W6 1-561): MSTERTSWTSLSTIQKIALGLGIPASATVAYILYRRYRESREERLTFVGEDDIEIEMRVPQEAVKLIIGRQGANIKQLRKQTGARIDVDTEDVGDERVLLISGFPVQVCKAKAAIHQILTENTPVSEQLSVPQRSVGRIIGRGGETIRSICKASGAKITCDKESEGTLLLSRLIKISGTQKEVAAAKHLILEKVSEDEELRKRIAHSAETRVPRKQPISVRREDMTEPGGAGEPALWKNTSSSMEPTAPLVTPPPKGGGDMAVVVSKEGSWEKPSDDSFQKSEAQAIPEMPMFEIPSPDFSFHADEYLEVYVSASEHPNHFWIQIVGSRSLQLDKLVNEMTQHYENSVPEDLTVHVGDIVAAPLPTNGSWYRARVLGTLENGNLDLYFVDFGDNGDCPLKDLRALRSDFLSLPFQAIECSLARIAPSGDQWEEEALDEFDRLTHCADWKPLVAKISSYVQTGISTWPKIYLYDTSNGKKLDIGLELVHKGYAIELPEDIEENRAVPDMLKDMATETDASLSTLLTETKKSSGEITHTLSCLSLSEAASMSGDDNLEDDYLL

[6] = biological target: Cys residues in primary human T cells (Homo sapiens, UniProt Q7Z4W1); assay: as above; assay type: cell-based; conditions: DCXR C244 (Q7Z4W1)
[7] = biological target: Cys residues in primary human T cells (Homo sapiens, UniProt Q8N2G8); assay: as above; assay type: cell-based; conditions: GHDC C502 (Q8N2G8)
[8] = biological target: T3, Cys residues in primary human T cells (Homo sapiens, UniProt Q6IA69); assay: as above; assay type: cell-based; conditions: NADSYN1 C428 (Q6IA69)
T3 sequence (Q6IA69 1-706): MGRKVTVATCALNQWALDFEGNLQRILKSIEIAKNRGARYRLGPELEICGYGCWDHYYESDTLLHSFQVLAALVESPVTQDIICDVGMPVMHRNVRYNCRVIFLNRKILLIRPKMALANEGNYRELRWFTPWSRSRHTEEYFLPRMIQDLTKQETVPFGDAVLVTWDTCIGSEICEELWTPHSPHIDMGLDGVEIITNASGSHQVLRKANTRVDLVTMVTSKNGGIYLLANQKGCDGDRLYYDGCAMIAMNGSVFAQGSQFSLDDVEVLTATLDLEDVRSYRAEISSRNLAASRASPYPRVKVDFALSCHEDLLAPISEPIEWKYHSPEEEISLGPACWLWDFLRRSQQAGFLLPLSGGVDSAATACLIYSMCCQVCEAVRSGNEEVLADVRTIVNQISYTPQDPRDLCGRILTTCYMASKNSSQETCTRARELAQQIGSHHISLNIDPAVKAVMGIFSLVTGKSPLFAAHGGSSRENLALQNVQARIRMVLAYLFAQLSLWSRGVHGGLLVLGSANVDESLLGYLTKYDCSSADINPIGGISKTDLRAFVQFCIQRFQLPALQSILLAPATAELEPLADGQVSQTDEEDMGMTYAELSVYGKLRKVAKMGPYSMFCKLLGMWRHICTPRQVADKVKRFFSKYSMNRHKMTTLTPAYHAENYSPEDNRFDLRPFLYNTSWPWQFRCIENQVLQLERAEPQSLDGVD

RRAGC C377 (Q9HB90) = RRAGC C377 (Q9HB90) (Homo sapiens, UniProt Q9HB90); assay: Competitive isoTOP-ABPP in situ; assay type: cell-based; conditions: fragment 2 at 200 μM, MDA-MB-231 cells
O00541_C272 = O00541_C272 (Homo sapiens, UniProt O00541); assay: Competitive isoTOP-ABPP, cell lysates; assay type: binding; conditions: 500 μm, in-vitro_ramos
Sequence of O00541_C272 (O00541 whole entry, looked up): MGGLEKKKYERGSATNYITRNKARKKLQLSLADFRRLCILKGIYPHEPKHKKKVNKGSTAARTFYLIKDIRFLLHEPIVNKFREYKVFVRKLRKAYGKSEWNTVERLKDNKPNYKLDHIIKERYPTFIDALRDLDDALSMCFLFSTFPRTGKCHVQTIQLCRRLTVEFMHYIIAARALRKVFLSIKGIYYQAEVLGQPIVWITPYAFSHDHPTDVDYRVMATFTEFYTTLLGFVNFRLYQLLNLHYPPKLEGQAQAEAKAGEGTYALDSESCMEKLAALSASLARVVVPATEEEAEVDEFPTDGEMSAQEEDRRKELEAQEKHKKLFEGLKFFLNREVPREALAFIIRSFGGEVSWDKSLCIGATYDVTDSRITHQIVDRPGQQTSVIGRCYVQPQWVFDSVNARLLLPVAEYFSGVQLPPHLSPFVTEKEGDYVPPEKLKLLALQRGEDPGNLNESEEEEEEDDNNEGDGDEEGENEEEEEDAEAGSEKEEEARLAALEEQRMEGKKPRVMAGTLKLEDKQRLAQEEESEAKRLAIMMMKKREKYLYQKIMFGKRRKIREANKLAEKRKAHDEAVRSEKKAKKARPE

Sequence of Cys residues in primary human T cells (Homo sapiens, UniProt Q7Z4W1) (Q7Z4W1 whole entry): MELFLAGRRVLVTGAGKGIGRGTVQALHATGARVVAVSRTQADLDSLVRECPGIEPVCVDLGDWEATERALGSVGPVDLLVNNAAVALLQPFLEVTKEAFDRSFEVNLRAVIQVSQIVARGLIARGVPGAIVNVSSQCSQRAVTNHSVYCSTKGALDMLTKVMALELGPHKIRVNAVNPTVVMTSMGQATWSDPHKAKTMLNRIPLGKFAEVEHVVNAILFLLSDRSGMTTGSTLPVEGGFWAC
Sequence of Cys residues in primary human T cells (Homo sapiens, UniProt Q15005) (Q15005 whole entry): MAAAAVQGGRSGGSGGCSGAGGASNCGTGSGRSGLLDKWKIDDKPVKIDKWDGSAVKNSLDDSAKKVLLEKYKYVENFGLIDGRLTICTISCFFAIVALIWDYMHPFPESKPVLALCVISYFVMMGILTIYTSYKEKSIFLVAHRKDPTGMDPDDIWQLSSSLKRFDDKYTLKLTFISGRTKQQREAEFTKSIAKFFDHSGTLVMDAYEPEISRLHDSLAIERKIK
Sequence of Cys residues in primary human T cells (Homo sapiens, UniProt Q8N2G8) (Q8N2G8 18-530): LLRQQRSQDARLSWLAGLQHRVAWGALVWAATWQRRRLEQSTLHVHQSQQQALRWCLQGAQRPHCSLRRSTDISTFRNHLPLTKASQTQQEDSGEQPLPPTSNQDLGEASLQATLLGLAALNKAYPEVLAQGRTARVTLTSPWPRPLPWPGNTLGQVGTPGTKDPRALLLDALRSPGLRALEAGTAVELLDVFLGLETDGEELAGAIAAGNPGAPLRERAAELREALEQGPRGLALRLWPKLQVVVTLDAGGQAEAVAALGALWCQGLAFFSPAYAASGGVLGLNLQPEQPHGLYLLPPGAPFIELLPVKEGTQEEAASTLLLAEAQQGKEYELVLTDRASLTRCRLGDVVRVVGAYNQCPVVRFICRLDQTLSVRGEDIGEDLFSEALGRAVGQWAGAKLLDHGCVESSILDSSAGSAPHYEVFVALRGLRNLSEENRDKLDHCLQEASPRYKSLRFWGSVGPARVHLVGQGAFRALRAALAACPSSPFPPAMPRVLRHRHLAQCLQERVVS
Sequence of RRAGC C377 (Q9HB90) (Q9HB90 2-399 limits assumed): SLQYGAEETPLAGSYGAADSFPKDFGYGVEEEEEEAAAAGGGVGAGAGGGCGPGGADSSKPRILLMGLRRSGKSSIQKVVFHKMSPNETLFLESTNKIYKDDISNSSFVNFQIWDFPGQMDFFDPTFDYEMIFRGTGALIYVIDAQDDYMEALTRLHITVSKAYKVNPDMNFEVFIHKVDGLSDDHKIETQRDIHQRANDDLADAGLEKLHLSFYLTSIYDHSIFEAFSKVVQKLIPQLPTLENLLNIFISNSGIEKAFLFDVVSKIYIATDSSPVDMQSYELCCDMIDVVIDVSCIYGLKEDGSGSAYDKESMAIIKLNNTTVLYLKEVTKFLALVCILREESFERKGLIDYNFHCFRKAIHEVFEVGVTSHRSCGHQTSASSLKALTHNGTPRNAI
Sequence of RRAGC C377 (Q9HB90) (Q7L523 whole entry partner, the tested form may be a part): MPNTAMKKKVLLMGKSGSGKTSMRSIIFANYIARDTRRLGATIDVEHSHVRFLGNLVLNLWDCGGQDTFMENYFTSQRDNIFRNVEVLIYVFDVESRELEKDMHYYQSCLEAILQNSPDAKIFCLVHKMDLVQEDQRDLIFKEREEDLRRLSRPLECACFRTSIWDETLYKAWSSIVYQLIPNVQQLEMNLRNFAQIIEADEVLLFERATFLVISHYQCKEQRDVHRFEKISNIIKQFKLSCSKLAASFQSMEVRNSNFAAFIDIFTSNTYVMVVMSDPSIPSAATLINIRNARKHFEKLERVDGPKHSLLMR

SMILES: COC(=O)/C=C/C(=O)OC [DMF, dimethyl fumarate]
cellular GSH content [1]: significant decrease | R value (DMSO/DMF) ([2]; DMF 10 μM 4h): 1.42 | R value (DMSO/DMF) ([2]; DMF 25 μM 4h): 2.41 | R value (DMSO/DMF) ([2]; DMF 50 μM 1h): 2.25 | R value (DMSO/DMF) ([2]; DMF 50 μM 2h): 3.86 | R value (DMSO/DMF) ([2]; DMF 50 μM 4h): 5.09 | DMF-sensitive Cys residues detected ([3]; 10 μM): very few | number of Cys residues with R value >4 (of more than 2400 quantified) ([3]; 50 μM): ~40 | R value (DMSO/DMF) ([4]; DMF 10 μM 4h): 5.07 | R value (DMSO/DMF) ([4]; DMF 50 μM 1h): 12.59 | R value (DMSO/DMF) ([4]; DMF 50 μM 2h): 11.72 | R value (DMSO/DMF) ([5]; DMF 10 μM 4h): 2.34 | R value (DMSO/DMF) ([5]; DMF 50 μM 1h): 4 | R value (DMSO/DMF) ([5]; DMF 50 μM 2h): 20 | R value (DMSO/DMF) ([5]; DMF 50 μM 4h): 20 | R value (DMSO/DMF) ([6]; DMF 10 μM 4h): 2.3 | R value (DMSO/DMF) ([6]; DMF 50 μM 1h): 1.29 | R value (DMSO/DMF) ([6]; DMF 50 μM 2h): 2.76 | R value (DMSO/DMF) ([6]; DMF 50 μM 4h): 4.24 | R value (DMSO/DMF) ([7]; DMF 50 μM 1h): 4.23 | R value (DMSO/DMF) ([7]; DMF 50 μM 2h): 20 | R value (DMSO/DMF) ([8]; DMF 10 μM 4h): 1.43 | R value (DMSO/DMF) ([8]; DMF 50 μM 1h): 1.81 | R value (DMSO/DMF) ([8]; DMF 50 μM 2h): 2.31 | R value (DMSO/DMF) ([8]; DMF 50 μM 4h): 20

isoTOP-ABPP reactivity profile (ratio) 2_200 μM_in-situ_231 (RRAGC C377 (Q9HB90)): 3.3
SMILES: COc1ccc2c(c1)CCCN2C(=O)CCl [compound 2]

isoTOP-ABPP reactivity profile ratio, O00541_C272 (O00541_C272): 0.9
SMILES: N#CC(=Cc1ccc(-c2ccccc2Cl)o1)C(N)=O [compound 42]

Source: patent US10670605B2, “Cysteine reactive probes and uses thereof” (The Scripps Research Institute, priority 2015, dated 2020)
